{"source": "patent US20060287273A1", "about": "“Methods and reagents for inhibiting cell proliferation” (priority 2005, published 2006)", "tested_on": "MDA-MB-435S cells", "assay": "TUNEL assay analyzed by FACS (apoptosis)", "type": "cell-based, human", "conditions": "48 hours post-transfection; staurosporine 1 uM; versus control siRNA", "description": "To examine this possibility, we utilized the TUNEL assay, which measures the appearance of free DNA ends that are the result of DNA fragmentation that occurs in the latter stages of apoptosis. MDA-MB-435S cells in 6 well dishes were transfected with the corresponding siRNA or treated with 1 uM staurosporine. 48 hours post-transfection, any detached cells were combined with cells detached using trypsin and the cells were washed, fixed with paraformaldehyde, subjected to TUNEL assay, and analyzed by FACS. […] Cells to be assayed were trypsinized, washed twice with PBS, followed by fixation for 20 min. in 1.5% paraformaldehyde in PBS at 4° C. with gentle mixing. The cells were then washed twice with PBS, suspended in 70% ethanol at 4° C., and stored at −20° C. until assayed. When assayed, the cells were washed twice with PBS and then resuspended in 50 μl of Tunel assay buffer consisting of 100 mM potassium cacodylate (pH 7.2), 2 mM CoCl2, 0.2 mM dithiotheitol, 3.3 nM fluorescein-conjugated dUTP, 13 nM DATP and 11 units of terminal deoxynucleotidyl transferase for 90 minutes at 37° C. The cells were then washed twice with PBS and analyzed by FACS sorting.", "data": [{"smiles": "CN[C@@H]1C[C@H]2O[C@@](C)([C@@H]1OC)n1c3ccccc3c3c4c(c5c6ccccc6n2c5c31)C(=O)NC4", "note": "[Staurosporine]", "values": [{"measurement": "apoptosis, incorporation of fluorescein-labeled dUTP", "result": "most dramatic increase in apoptotic cells"}]}]}
